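Assay format: 96-well plates, 48-hour exposure. GI50: concentration for 50% inhibition of growth. TGI marks complete inhibition of growth.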
What was measured:
Test in all cases: NCI anticancer screen, dose series, 48 h; in the data active = GI50 below about 0.43 µM; inactive = the rest
SN12C renal = tested on: SN12C renal
HCT-116 colon = tested on: HCT-116 colon
SK-MEL-28 melanoma = tested on: SK-MEL-28 melanoma
MDA-MB-231 breast = tested on: MDA-MB-231 breast
MCF7 breast = tested on: MCF7 breast
TK-10 renal = tested on: TK-10 renal
OVCAR-4 ovarian = tested on: OVCAR-4 ovarian
SF-268 CNS = tested on: SF-268 CNS
NCI-H460 lung = tested on: NCI-H460 lung
HS 578T breast = tested on: HS 578T breast
UO-31 renal = tested on: UO-31 renal

CCN1c2ccccc2NC(=S)c2c1n[nH]c2-c1ccccc1
95.6 µM: TGI (SF-268 CNS)
61.8 µM: TGI (MDA-MB-231 breast)
74.9 µM: TGI (MCF7 breast)
> 100 µM: TGI (SN12C renal) | TGI (HCT-116 colon) | TGI (SK-MEL-28 melanoma) | TGI (TK-10 renal) | TGI (OVCAR-4 ovarian) | TGI (HS 578T breast)
77.2 µM: TGI (NCI-H460 lung)

O=c1[nH]c(=O)c2ncn(-c3ccc([N+](=O)[O-])cn3)c2[nH]1
> 100 µM: TGI (UO-31 renal) | TGI (SN12C renal) | TGI (HCT-116 colon) | TGI (SK-MEL-28 melanoma) | TGI (MDA-MB-231 breast) | TGI (MCF7 breast) | TGI (TK-10 renal) | TGI (OVCAR-4 ovarian) | TGI (SF-268 CNS) | TGI (NCI-H460 lung)

Clc1cc(-c2ccccc2)nc(Nc2nc3ccccc3[nH]2)n1
93.7 µM: TGI (NCI-H460 lung)
80.2 µM: TGI (HS 578T breast)
80.9 µM: TGI (SF-268 CNS)
63 µM: TGI (SN12C renal)
33 µM: TGI (OVCAR-4 ovarian)
33.9 µM: TGI (MDA-MB-231 breast)
> 100 µM: TGI (UO-31 renal) | TGI (HCT-116 colon) | TGI (TK-10 renal)

COC1OCC(O)C(NC(=O)N(C)N=O)C1O (stereo unspecified)
> 100 µM: TGI (UO-31 renal) | TGI (SN12C renal) | TGI (HCT-116 colon) | TGI (SK-MEL-28 melanoma) | TGI (MCF7 breast) | TGI (OVCAR-4 ovarian) | TGI (SF-268 CNS) | TGI (NCI-H460 lung)

COC1/C=C/C=C(/C)Cc2cc(O)c(Cl)c(c2)N(C)C(=O)CC(OC(=O)C(C)C)C2(C)OC2C(C)C2CC1(O)NC(=O)O2 (stereo unspecified)
> 100 µM: TGI (UO-31 renal) | TGI (HCT-116 colon) | TGI (MCF7 breast) | TGI (HS 578T breast)
> 42.3 µM: TGI (MDA-MB-231 breast)
> 65.2 µM: TGI (TK-10 renal)
< 0.01 µM: TGI (OVCAR-4 ovarian)
> 44.7 µM: TGI (SN12C renal)
44.2 µM: TGI (SF-268 CNS)

c1coc(-c2nccc3c2[nH]c2ccccc23)c1
> 100 µM: TGI (SN12C renal) | TGI (HCT-116 colon) | TGI (SK-MEL-28 melanoma) | TGI (MDA-MB-231 breast) | TGI (MCF7 breast) | TGI (TK-10 renal) | TGI (OVCAR-4 ovarian) | TGI (SF-268 CNS) | TGI (NCI-H460 lung) | TGI (HS 578T breast)

CC1=NN(C(=O)Cc2ccccc2)C(=O)/C1=C\c1ccc([N+](=O)[O-])cc1
> 100 µM: TGI (UO-31 renal) | TGI (SN12C renal) | TGI (HCT-116 colon) | TGI (SK-MEL-28 melanoma) | TGI (TK-10 renal) | TGI (OVCAR-4 ovarian) | TGI (SF-268 CNS) | TGI (NCI-H460 lung)

CN(C)C(=O)Oc1c(Br)cc(Br)cc1C(=O)OCc1ccccc1
> 70.3 µM: TGI (MCF7 breast)
68.9 µM: TGI (UO-31 renal)
> 100 µM: TGI (OVCAR-4 ovarian) | TGI (SF-268 CNS)
52.8 µM: TGI (SN12C renal)
29 µM: TGI (HCT-116 colon)
56.5 µM: TGI (NCI-H460 lung)
97.3 µM: TGI (SK-MEL-28 melanoma)

O=c1[nH]c2ccccc2c(O)c1Cc1ccccc1
> 100 µM: TGI (SN12C renal) | TGI (HCT-116 colon) | TGI (SK-MEL-28 melanoma) | TGI (MDA-MB-231 breast) | TGI (MCF7 breast) | TGI (TK-10 renal) | TGI (OVCAR-4 ovarian) | TGI (SF-268 CNS) | TGI (NCI-H460 lung) | TGI (HS 578T breast)

CN(C)CN1CSC(=S)N(CN(C)C)C1
> 100 µM: TGI (UO-31 renal) | TGI (SN12C renal) | TGI (HCT-116 colon) | TGI (SK-MEL-28 melanoma) | TGI (MDA-MB-231 breast) | TGI (TK-10 renal) | TGI (OVCAR-4 ovarian) | TGI (SF-268 CNS) | TGI (NCI-H460 lung) | TGI (HS 578T breast)

CCn1c2nc(=O)n(CCCCCCCCSC(c3ccccc3)(c3ccccc3)c3ccccc3)c(=O)c-2nc2ccccc21
> 100 µM: TGI (UO-31 renal) | TGI (HCT-116 colon) | TGI (SK-MEL-28 melanoma) | TGI (MDA-MB-231 breast) | TGI (MCF7 breast) | TGI (TK-10 renal) | TGI (OVCAR-4 ovarian) | TGI (SF-268 CNS) | TGI (NCI-H460 lung) | TGI (HS 578T breast)

COC(C/C(=C/CO[Si](C(C)C)(C(C)C)C(C)C)C(=O)N(C(=O)OC(C)(C)C)c1ccccc1I)OC
41.2 µM: TGI (MCF7 breast)
> 100 µM: TGI (UO-31 renal) | TGI (SN12C renal) | TGI (HCT-116 colon) | TGI (SK-MEL-28 melanoma) | TGI (TK-10 renal) | TGI (OVCAR-4 ovarian) | TGI (SF-268 CNS) | TGI (NCI-H460 lung) | TGI (HS 578T breast)

CC(=O)OCC1OC(n2cnc3nc(Br)[nH]c(=O)c32)C(OC(C)=O)C1OC(C)=O (stereo unspecified)
> 100 µM: TGI (UO-31 renal) | TGI (SN12C renal) | TGI (HCT-116 colon) | TGI (MDA-MB-231 breast) | TGI (MCF7 breast) | TGI (TK-10 renal) | TGI (OVCAR-4 ovarian) | TGI (SF-268 CNS) | TGI (NCI-H460 lung) | TGI (HS 578T breast)

Nc1nc(Cl)cc(OCC2(CO)CCCC2)n1
> 100 µM: TGI (SN12C renal) | TGI (HCT-116 colon) | TGI (SK-MEL-28 melanoma) | TGI (MCF7 breast) | TGI (TK-10 renal) | TGI (OVCAR-4 ovarian) | TGI (SF-268 CNS) | TGI (NCI-H460 lung) | TGI (HS 578T breast)

O=c1cc(-c2ccccc2)[nH]c2ncccc12
> 52.1 µM: TGI (NCI-H460 lung)
> 100 µM: TGI (UO-31 renal) | TGI (SK-MEL-28 melanoma) | TGI (MCF7 breast) | TGI (TK-10 renal) | TGI (OVCAR-4 ovarian) | TGI (SF-268 CNS)
> 26.7 µM: TGI (MDA-MB-231 breast)
> 54 µM: TGI (HCT-116 colon)

CC[C@@]1(O)C[C@H](OC2CC(N(C)C)C(O)C(C)O2)c2c(cc3c(c2O)C(=O)c2c(O)ccc(O)c2C3=O)[C@H]1C(=O)OC (stereo partly specified)
0.68 µM: TGI (SF-268 CNS)
0.996 µM: TGI (MCF7 breast)
0.12 µM: TGI (NCI-H460 lung)
0.0918 µM: TGI (OVCAR-4 ovarian)
0.462 µM: TGI (SK-MEL-28 melanoma)
1 µM: TGI (UO-31 renal)
1.47 µM: TGI (SN12C renal)
0.829 µM: TGI (HCT-116 colon)

CCC(C)(C)c1cc(O)c(C(C)(C)CC)cc1O
14.1 µM: TGI (OVCAR-4 ovarian)
8.19 µM: TGI (TK-10 renal)
6.53 µM: TGI (NCI-H460 lung)
10.9 µM: TGI (SK-MEL-28 melanoma)
8.04 µM: TGI (MDA-MB-231 breast)
11.6 µM: TGI (MCF7 breast)
15.6 µM: TGI (SF-268 CNS)
inactive: GI50 (SN12C renal) 3.2 µM | GI50 (SK-MEL-28 melanoma) 2.82 µM | GI50 (MDA-MB-231 breast) 2.35 µM | GI50 (MCF7 breast) 2.46 µM | GI50 (TK-10 renal) 2.46 µM | GI50 (OVCAR-4 ovarian) 3.26 µM | GI50 (SF-268 CNS) 3.92 µM | GI50 (NCI-H460 lung) 2.25 µM
16.4 µM: TGI (SN12C renal)

COc1cc(C2S/C(=C/c3ccccc3)C(=O)N2Cc2ccccc2)cc(OC)c1OC (stereo unspecified)
> 100 µM: TGI (UO-31 renal) | TGI (SN12C renal) | TGI (SK-MEL-28 melanoma) | TGI (MDA-MB-231 breast) | TGI (MCF7 breast) | TGI (TK-10 renal) | TGI (OVCAR-4 ovarian) | TGI (SF-268 CNS) | TGI (HS 578T breast)
47 µM: TGI (HCT-116 colon)

Fc1ccc(-c2sc(-c3ccsc3)cc2Cc2ccsc2)cc1
> 10 µM: TGI (SN12C renal) | TGI (SK-MEL-28 melanoma) | TGI (MDA-MB-231 breast) | TGI (MCF7 breast) | TGI (TK-10 renal) | TGI (OVCAR-4 ovarian) | TGI (SF-268 CNS)

CSc1ncc2c(n1)-c1ccccc1OC2N1CCOCC1 (stereo unspecified)
> 100 µM: TGI (UO-31 renal) | TGI (SN12C renal) | TGI (HCT-116 colon) | TGI (MDA-MB-231 breast) | TGI (MCF7 breast) | TGI (TK-10 renal) | TGI (OVCAR-4 ovarian) | TGI (SF-268 CNS) | TGI (NCI-H460 lung) | TGI (HS 578T breast)

Nc1nc(NCCOCP(=O)(O)O)c([N+](=O)[O-])c(=O)[nH]1
> 100 µM: TGI (UO-31 renal) | TGI (SN12C renal) | TGI (HCT-116 colon) | TGI (SK-MEL-28 melanoma) | TGI (TK-10 renal) | TGI (SF-268 CNS) | TGI (NCI-H460 lung)

CCc1cc(C)cc2[n+]1CC=C2
> 100 µM: TGI (SK-MEL-28 melanoma) | TGI (TK-10 renal) | TGI (OVCAR-4 ovarian) | TGI (SF-268 CNS)
93.9 µM: TGI (NCI-H460 lung)
48.2 µM: TGI (HCT-116 colon)
68.9 µM: TGI (UO-31 renal)
78.6 µM: TGI (SN12C renal)
